Tests used:
P70S6K (T412E mutant) = P70S6K (T412E mutant) (Homo sapiens (Human), UniProt P23443, T412E); assay: P70S6K enzyme assay; assay type: biochemical; conditions: read-out: IC50 p70S6K
In short: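 Read-out is the substrate/phosphopeptide ratio from mobility-shift electrophoresis on a LabChip 3000.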

His-AKT (Full Length) = His-AKT (Full Length) (Homo sapiens (Human), UniProt P31749); assay: AKT enzyme assay; assay type: biochemical; conditions: read-out: IC50 AKT
His-AKT (Full Length), sequence (P31749 whole entry): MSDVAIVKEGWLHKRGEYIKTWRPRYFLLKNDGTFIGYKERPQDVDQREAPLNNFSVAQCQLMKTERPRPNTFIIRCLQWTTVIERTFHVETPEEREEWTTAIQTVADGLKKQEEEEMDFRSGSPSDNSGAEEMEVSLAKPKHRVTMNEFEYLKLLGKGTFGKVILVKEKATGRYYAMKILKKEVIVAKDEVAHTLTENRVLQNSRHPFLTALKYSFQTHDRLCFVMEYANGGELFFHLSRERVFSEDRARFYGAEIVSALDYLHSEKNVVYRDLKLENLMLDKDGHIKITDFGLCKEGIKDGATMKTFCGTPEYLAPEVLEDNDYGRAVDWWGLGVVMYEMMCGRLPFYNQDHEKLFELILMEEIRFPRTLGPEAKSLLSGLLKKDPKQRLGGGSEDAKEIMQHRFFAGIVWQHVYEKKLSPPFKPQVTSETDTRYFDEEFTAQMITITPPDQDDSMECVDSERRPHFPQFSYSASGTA

P70S6K (T412E mutant), sequence (P23443 whole entry T412E): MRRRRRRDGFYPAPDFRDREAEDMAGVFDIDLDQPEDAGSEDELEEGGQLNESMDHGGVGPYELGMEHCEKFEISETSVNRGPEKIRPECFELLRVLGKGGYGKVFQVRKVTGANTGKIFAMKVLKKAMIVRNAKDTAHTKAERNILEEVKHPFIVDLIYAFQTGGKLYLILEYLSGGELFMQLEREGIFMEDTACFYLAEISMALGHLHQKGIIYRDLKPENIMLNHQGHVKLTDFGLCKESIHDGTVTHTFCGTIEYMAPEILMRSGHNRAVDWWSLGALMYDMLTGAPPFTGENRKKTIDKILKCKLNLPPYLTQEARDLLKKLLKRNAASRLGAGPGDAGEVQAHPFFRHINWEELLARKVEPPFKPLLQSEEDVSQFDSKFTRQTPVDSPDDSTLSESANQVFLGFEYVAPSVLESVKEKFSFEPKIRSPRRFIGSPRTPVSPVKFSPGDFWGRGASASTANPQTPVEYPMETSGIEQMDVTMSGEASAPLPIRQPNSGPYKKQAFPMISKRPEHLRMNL

SMILES | IC50 (P70S6K (T412E mutant)) | IC50 (His-AKT (Full Length))
N#Cc1c(N)ncnc1N1CCC(c2nc(-c3ccc(F)c(Cl)c3)cn2CCN2CCC2)CC1 [Compound 75, 4-Amino-6-{4-[1-(2-azetidin-1-yl-ethyl)-4-(3-chloro-4-fluoro-phenyl)-1H-imidazol-2-yl]-piperidin-1-yl}-pyrimidine-5-carbonitrile] | 1 nM | 1.9 nM
NC(=O)c1c(N)ncnc1N1CCC(c2nc(-c3ccc(F)c(F)c3)cn2CCN2CCC2)CC1 [Compound 328] | 8.1 nM | 140 nM
Cn1cc(-c2ccc(F)c(C(F)(F)F)c2)nc1C1CCN(c2ncncc2Br)CC1 [Compound 41, 5-Bromo-4-{4-[4-(4-fluoro-3-trifluoromethyl-phenyl)-1-methyl-1H-imidazol-2-yl]-piperidin-1-yl}-pyrimidine] | 3 nM | 1400 nM
N#Cc1c(N)ncnc1N1CCC(c2nc(-c3cccc(S(N)(=O)=O)c3)cn2CCN2CCC2)CC1 [Compound 354, 3-[2-[1-(6-Amino-5-cyano-pyrimidin-4-yl)-piperidin-4-yl]-1-(2-azetidin-1-yl-ethyl)-1H-imidazol-4-yl]-benzenesulfonamide] | > 10000 nM | > 10000 nM
CNCCn1cc(-c2ccnc(C(F)(F)F)c2)nc1C1CCN(c2ncnc(N)c2C2C=NOC2)CC1 (stereo not drawn) [Compound 170, 5-(4,5-dihydroisoxazol-4-yl)-6-(4-(1-(2-(methylamino)ethyl)-4-(2-(trifluoromethyl)pyridin-4-yl)-1H-imidazol-2-yl)piperidin-1-yl)pyrimidin-4-amine] | 170 nM | 120 nM
N#Cc1c(N)ncnc1N1CCC(c2nc(-c3ccc(F)c(C(F)(F)F)c3)cn2CCNC2CCCC2)CC1 [Compound 381, 4-Amino-6-{4-[1-(2-cyclopentylamino-ethyl)-4-(4-fluoro-3-trifluoromethyl-phenyl)-1H-imidazol-2-yl]-piperidin-1-yl}-pyrimidine-5-carbonitrile] | 1.1 nM | 0.8 nM
CCOc1c(N)ncnc1N1CCC(c2nc(-c3ccnc(C(F)(F)F)c3)cn2CCN2CCC2)CC1 [Compound 116, 6-(4-(1-(2-(azetidin-1-yl)ethyl)-4-(2-(trifluoromethyl)pyridin-4-yl)-1H-imidazol-2-yl)piperidin-1-yl)-5-ethoxypyrimidin-4-amine] | 2.4 nM | 8.2 nM
Cc1cc(-c2cn(CC3CNC3)c(C3CCN(c4ncnc(N)c4OC(C)C)CC3)n2)ccc1F [Compound 187, 6-(4-(1-(azetidin-3-ylmethyl)-4-(4-fluoro-3-methylphenyl)-1H-imidazol-2-yl)piperidin-1-yl)-5-isopropoxypyrimidin-4-amine] | 3.4 nM | 6.4 nM
Cn1cc(-c2ccc(F)c(C(F)(F)F)c2)nc1C1CCN(c2ncnc(N)c2C=O)CC1 [Compound 6, 4-Amino-6-{4-[4-(4-fluoro-3-trifluoromethyl-phenyl)-1-methyl-1H-imidazol-2-yl]-piperidin-1-yl}-pyrimidine-5-carbaldehyde] | 0.6 nM | 160 nM
Cc1cc(-c2cn(CCNC(C)C)c(C3CCN(c4ncnc(N)c4C#N)CC3)n2)ccc1F [Compound 380, 4-Amino-6-{4-[4-(4-fluoro-3-methyl-phenyl)-1-(2-isopropylamino-ethyl)-1H-imidazol-2-yl]-piperidin-1-yl}-pyrimidine-5-carbonitrile] | 1.3 nM | 2.9 nM
COc1c(N)ncnc1N1CCC(c2nc(-c3ccc(F)c(C)c3)cn2CC2CNC2)CC1 [Compound 184, 6-(4-(1-(azetidin-3-ylmethyl)-4-(4-fluoro-3-methylphenyl)-1H-imidazol-2-yl)piperidin-1-yl)-5-methoxypyrimidin-4-amine] | 0.26 nM | 2.3 nM
Nc1ncnc(N2CCC(c3nc(-c4ccc(C(F)(F)F)c(F)c4)cn3CCN3CCCC3)CC2)c1C1CCC1 [Compound 254] | 8.1 nM | 9.1 nM
Nc1ncnc(N2CCC(c3nc(-c4ccc(C(F)(F)F)cc4)cn3CCN3CCCC3)CC2)c1Br [Compound 265] | 6.2 nM | 110 nM
NC(=O)c1c(N)ncnc1N1CCC(c2nc(-c3ccc(F)c(Cl)c3)cn2CCN2CCCC2)CC1 [Compound 330] | 3.6 nM | 14 nM
NC(=O)c1c(N)ncnc1N1CCC(c2nc(-c3ccsc3)cn2CCN2CCC2)CC1 [Compound 134, 4-amino-6-(4-(1-(2-(azetidin-1-yl)ethyl)-4-(thiophen-3-yl)-1H-imidazol-2-yl)piperidin-1-yl)pyrimidine-5-carboxamide] | 6 nM | 1900 nM
Cc1cc(-c2cn(CCN3CCC3)c(C3CCN(c4ncnc(N)c4-c4cn[nH]c4)CC3)n2)ccc1F [Compound 164, 6-(4-(1-(2-(azetidin-1-yl)ethyl)-4-(4-fluoro-3-methylphenyl)-1H-imidazol-2-yl)piperidin-1-yl)-5-(1H-pyrazol-4-yl)pyrimidin-4-amine] | 4.4 nM | 5.5 nM
Nc1ncnc(N2CCC(c3nc(-c4ccc(F)c(F)c4)cn3CCN3CCCC3)CC2)c1Br [Compound 226] | 1.3 nM | 1.7 nM

SMILES | IC50 (P70S6K (T412E mutant)) | IC50 (His-AKT (Full Length))
CCc1c(N)ncnc1N1CCC(c2nc(-c3ccc(F)c(C(F)(F)F)c3)cn2CCN2CCC2)CC1 [Compound 230] | 2.1 nM | 4.1 nM
N#Cc1c(N)ncnc1N1CCC(c2nc(-c3ccc(F)c(F)c3)cn2CCN2CCCC2)CC1 [Compound 306, 4-amino-6{4-(3,4-difluorophenyl-1-2-(pyrrolidin-1-yl-ethyl)-1H-imidazol-2-yl]-piperidin-1-yl}-pyrimidin-5-carbonitrile] | 2 nM | 7.6 nM
Cc1cc(-c2cn(CCN(C)C(C)C)c(C3CCN(c4ncnc(N)c4C#N)CC3)n2)ccc1F [Compound 379, 4-Amino-6-(4-{4-(4-fluoro-3-methyl-phenyl)-1-[2-(isopropyl-methyl-amino)-ethyl]-1H-imidazol-2-yl}-piperidin-1-yl)-pyrimidine-5-carbonitrile] | 0.8 nM | 2.7 nM
N#Cc1c(N)ncnc1N1CCC(c2nc(-c3ccc(F)c(C(F)(F)F)c3)cn2CCNCC2CC2)CC1 [Compound 358, 4-Amino-6-{4-[1-[2-(cyclopropylmethyl-amino)-ethyl]-4-(4-fluoro-3-trifluoromethyl-phenyl)-1H-imidazol-2-yl]-piperidin-1-yl}-pyrimidine-5-carbonitrile] | 1.1 nM | 1.6 nM
NC(=O)c1c(N)ncnc1N1CCC(c2nc(-c3ccoc3)cn2CCN2CCC2)CC1 [Compound 133, 4-amino-6-(4-(1-(2-(azetidin-1-yl)ethyl)-4-(furan-3-yl)-1H-imidazol-2-yl)piperidin-1-yl)pyrimidine-5-carboxamide] | 46 nM | 3600 nM
CN(C)CCn1cc(-c2ccc(F)c(C(F)(F)F)c2)nc1C1CCN(c2ncnc(N)c2-c2ccncc2)CC1 [Compound 69, 6-{4-[1-(2-Dimethylamino-ethyl)-4-(4-fluoro-3-trifluoromethyl-phenyl)-1H-imidazol-2-yl]-piperidin-1-yl}-5-pyridin-4-yl-pyrimidin-4-ylamine] | 3 nM | 43 nM
COc1ccc(-c2cn(CCN3CCC3)c(C3CCN(c4ncnc(N)c4C#N)CC3)n2)cc1Cl [Compound 323] | 8.3 nM | 31 nM
Cc1cc(-c2cn(CCN3CCC3)c(C3CCN(c4ncnc(N)c4C(N)=O)CC3)n2)ccc1F [Compound 124, 4-amino-6-(4-(1-(2-(azetidin-1-yl)ethyl)-4-(4-fluoro-3-methylphenyl)-1H-imidazol-2-yl)piperidin-1-yl)pyrimidine-5-carboxamide] | 2 nM | 14 nM
Nc1ncnc(N2CCC(c3nc(-c4ccc(F)c(C(F)(F)F)c4)cn3CCN3CCCCC3)CC2)c1Br [Compound 61, 5-Bromo-6-{4-[4-(4-fluoro-3-trifluoromethyl-phenyl)-1-(2-piperidin-1-yl-ethyl)-1H-imidazol-2-yl]-piperidin-1-yl}-pyrimidin-4-ylamine] | 2.8 nM | 9 nM
Cc1cc(-c2cn(CCN(C)C)c(C3CCN(c4ncnc(N)c4C(N)=O)CC3)n2)ccc1F [Compound 348] | 4 nM | 32 nM
Nc1ncnc(N2CCC(c3nc(-c4cccc(F)c4)cn3CCN3CCCC3)CC2)c1Cl [Compound 236] | 0.5 nM | 8.1 nM
Nc1ncnc(N2CCC(c3nc(-c4ccc(F)c(C(F)(F)F)c4)cn3CCN3CCC3)CC2)c1-c1cnoc1 [Compound 109, 6-(4-(1-(2-(azetidin-1-yl)ethyl)-4-(4-fluoro-3-(trifluoromethyl)phenyl)-1H-imidazol-2-yl)piperidin-1-yl)-5-(isoxazol-4-yl)pyrimidin-4-amine] | 0.9 nM | 1.6 nM
Nc1ncnc(N2CCC(c3nc(-c4ccc(F)c(C(F)(F)F)c4)cn3CCN3CCCC3)CC2)c1-c1ccc(F)c(F)c1 [Compound 59] | 9.6 nM | 110 nM
Cc1ccc(-c2c(N)ncnc2N2CCC(c3nc(-c4ccc(F)c(C(F)(F)F)c4)cn3C)CC2)cn1 [Compound 19, 6-{4-[4-(4-Fluoro-3-trifluoromethyl-phenyl)-1-methyl-1H-imidazol-2-yl]-piperidin-1-yl}-5-(6-methyl-pyridin-3-yl)-pyrimidin-4-ylamine] | 2.2 nM | 1700 nM
Cc1cc(-c2cn(CCN(C)C(C)C)c(C3CCN(c4ncnc(N)c4C(N)=O)CC3)n2)ccc1F [Compound 385, 4-Amino-6-(4-{4-(4-fluoro-3-methyl-phenyl)-1-[2-(isopropyl-methyl-amino)-ethyl]-1H-imidazol-2-yl}-piperidin-1-yl)-pyrimidine-5-carboxylic acid amide] | 6.2 nM | 42 nM
COc1cc(-c2cn(CCN3CCC3)c(C3CCN(c4ncnc(N)c4C(N)=O)CC3)n2)ccc1F [Compound 121, 4-amino-6-(4-(1-(2-(azetidin-1-yl)ethyl)-4-(4-fluoro-3-methoxyphenyl)-1H-imidazol-2-yl)piperidin-1-yl)pyrimidine-5-carboxamide] | 1 nM | 2.4 nM
